Source: US9340549B2, “Oxazolidinone compounds and derivatives thereof” (priority 2012, dated 2016)
Read-outs that look alike come from different tables or passages of the source.

Tests used:
[1] = target: 6×HIS-tankyrase 1 (1091-1325) (Homo sapiens (Human), UniProt O95271); assay: biochemical; format: biochemical; conditions: 400 nM NAD, 60 minutes at room temperature, read-out: TNKS1 IP IC50
[2] = system: total β-catenin in SW480 colorectal cells; assay: cells; format: cell-based; conditions: Homo sapiens
Outline: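 SW480 cells in growth medium (MEM alpha, 10% heat-inactivated FBS, 10 mM HEPES) treated with a 10-point, 3-fold dilution series of TNKS inhibitor for 40–48 h at 37 °C. Lysates run on an MSD sandwich immunoassay for total β-catenin, read by electrochemiluminescence.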

Axin2 in SW480 cells = assay: cells; format: cell-based; conditions: Homo sapiens, read-out: Axin2 384 IF EC50 IP
Outline: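 SW480 cells treated 24 h at 37° C (0.5% DMSO final), fixed/permeabilized, immunostained for Axin2. ArrayScan imaging quantified ring-spot intensity; Axin2 accumulation expressed as percent of control, EC50 from concentration-response.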

[3] = SW480 cells, 40 to 48 hours, top concentration 10 μM, read-out: SW480-Total β-Catenin IC50 IP
[4] = SW480, 24 h, SW480 cells, 24 hours
[5] = SW480, read-out: SW480-Total β-Catenin IC50 IP

Sequence of 6×HIS-tankyrase 1 (1091-1325) (O95271 1091-1325): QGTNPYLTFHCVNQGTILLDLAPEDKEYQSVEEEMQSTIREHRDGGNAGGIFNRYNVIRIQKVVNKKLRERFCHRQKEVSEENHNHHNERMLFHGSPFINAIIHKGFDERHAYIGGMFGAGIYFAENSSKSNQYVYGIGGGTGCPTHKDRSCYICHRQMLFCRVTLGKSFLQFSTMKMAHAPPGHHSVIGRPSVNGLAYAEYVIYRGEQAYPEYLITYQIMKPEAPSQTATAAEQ

Row | SMILES | IC50 ([1]; […] enzyme) [nM] | IC50 [2, 3] [nM] | EC50 (Axin2 in SW480 cells; [4]) [nM] | EC50 (Axin2 in SW480 cells; SW480 cells, 24 hours) [nM] | IC50 [2, 5] [nM] | EC50 (Axin2 in SW480 cells; SW480, 24 h) [nM] | IC50 ([1]; 0.25 nM enzyme) [nM]
1 | CC1(C)OC(=O)N(c2ccc(-c3cc(-c4ncccn4)cnc3F)cc2)[C@H]1c1ccccc1 [Example 3, (S)-3-(4-(2-Fluoro-5-(pyrimidin-2-yl)pyridin-3-yl)phenyl)-5,5-dimethyl-4-phenyloxazolidin-2-one] | 378 | 1750 | > 25000 | – | – | – | –
2 | CC1(C)OC(=O)N(c2ccc(-c3ccc[nH]c3=O)cc2)[C@H]1c1ccccc1 [Example 119, (S)-5,5-dimethyl-3-(4-(2-oxo-1,2-dihydropyridin-3-yl)phenyl)-4-phenyloxazolidin-2-one] | 1350 | > 10000 | > 25000 | – | – | – | –
3 | CC1(C)OC(=O)N(c2ccc(N3C(=O)Cc4ccccc43)cc2)[C@H]1c1ccccc1 [Example 18, (S)-5,5-dimethyl-3-(4-(2-oxoindolin-1-yl)phenyl)-4-phenyloxazolidin-2-one] | 973 | > 10000 | > 25000 | – | – | – | –
4 | CC1(C)OC(=O)N(c2ccc3c(c2)CCN(c2cccc4cccnc24)C3=O)[C@H]1c1ccccc1 [Example 63, (S)-5,5-dimethyl-3-(1-oxo-2-(quinolin-8-yl)-1,2,3,4-tetrahydroisoquinolin-6-yl)-4-phenyloxazolidin-2-one] | 7050 | > 10000 | > 25000 | – | – | – | –
5 | CC1(C)OC(=O)N(c2ccc(-c3cc(-c4ncccn4)ncc3F)cc2)[C@H]1c1ccccc1 [Example 129, (S)-3-(4-(5-fluoro-2-(pyrimidin-2-yl)pyridin-4-yl)phenyl)-5,5-dimethyl-4-phenyloxazolidin-2-one] | 1830 | > 10000 | > 25000 | – | – | – | –
6 | O=C(Nc1cccc2cccnc12)c1ccc(N2C(=O)OC3(CCC3)C2c2ccccc2)cc1 (stereo not drawn) [Example 44, (R+S) 4-(6-oxo-8-phenyl-5-oxa-7-azaspiro[3.4]octan-7-yl)-N-(quinolin-8-yl)benzamide] | 822 | 8800 | – | > 25000 | – | – | –
7 | CC1(C)OC(=O)N([C@H]2CC[C@@H](c3c[nH]c(=O)c(-c4ncccn4)c3)CC2)[C@H]1c1ccccc1 [Example 96, (S)-5,5-Dimethyl-3-((1s,4R)-4-(6-oxo-5-(pyrimidin-2-yl)-1,6-dihydropyridin-3-yl)cyclohexyl)-4-phenyloxazolidin-2-one] | 511 | > 10000 | > 25000 | – | – | – | –
8 | CC1(C)OC(=O)N(c2ccc(-c3cc4ccncc4[nH]c3=O)cc2)[C@H]1c1ccccc1 [Example 88, (S)-5,5-dimethyl-3-(4-(2-oxo-1,2-dihydro-1,7-naphthyridin-3-yl)phenyl)-4-phenyloxazolidin-2-one] | 11.8 | 473 | 285 | – | – | – | –
9 | CC1(C)OC(=O)N(c2ccc(-n3cc(-c4ncccn4)ccc3=O)cc2)[C@H]1c1ccccc1 [Example 127, (S)-5,5-dimethyl-3-(4-(2-oxo-5-(pyrimidin-2-yl)pyridin-1(2H)-yl)phenyl)-4-phenyloxazolidin-2-one] | 280 | 1100 | 6270 | – | – | – | –
10 | CC1(C)OC(=O)N([C@H]2CC[C@H](NC(=O)n3ccc4cccnc43)CC2)[C@H]1c1ccccc1 [Example 58, N-(trans-4-((4S)-5,5-dimethyl-2-oxo-4-phenyl-1,3-oxazolidin-3-yl)cyclohexyl)-1H-pyrrolo[2,3-b]pyridine-1-carboxamide] | 7.46 | 979 | 828 | – | – | – | –
11 | CC1(C)OC(=O)N([C@H]2CC[C@H](c3cc(-c4ncccn4)c[nH]c3=O)CC2)[C@H]1c1ccccc1 [Example 81, 3-(trans-4-((4S)-5,5-dimethyl-2-oxo-4-phenyl-1,3-oxazolidin-3-yl)cyclohexyl)-5-(2-pyrimidinyl)-2(1H)-pyridinone] | 11.4 | – | – | – | 767 | 840 | –
12 | CC1(C)OC(=O)N(c2ccc(-c3cnc(N)nc3)cc2)[C@H]1c1ccccc1 [Example 70, (S)-3-(4-(2-aminopyrimidin-5-yl)phenyl)-5,5-dimethyl-4-phenyloxazolidin-2-one] | 1490 | > 10000 | > 25000 | – | – | – | –
13 | CC1(C)OC(=O)N(c2ccc(-c3nnc4ccc(Cl)nn34)cc2)[C@H]1c1ccccc1 [Example 68, (S)-3-(4-(6-chloro-[1,2,4]triazolo[4,3-b]pyridazin-3-yl)phenyl)-5,5-dimethyl-4-phenyloxazolidin-2-one] | 1980 | > 10000 | > 25000 | – | – | – | –
14 | CC1(C)OC(=O)N([C@H]2CC[C@H](c3cnc4[nH]c(=O)n(-c5ncccn5)c4c3)CC2)[C@@H]1c1ccccc1 (single isomer, unassigned) [Example 14] | 26.8 | 923 | 1030 | – | – | – | –
15 | CC1(C)OC(=O)N([C@H]2CC[C@H](n3c(=O)[nH]c4cnc(Cl)cc43)CC2)[C@H]1c1ccccc1 [Example 53, (S)-3-((1r,4S)-4-(6-chloro-2-oxo-2,3-dihydro-1H-imidazo[4,5-c]pyridin-1-yl)cyclohexyl)-5,5-dimethyl-4-phenyloxazolidin-2-one] | 6.52 | 284 | 291 | – | – | – | –
16 | CC1(c2ccccc2)CN([C@H]2CC[C@@H](n3c(=O)[nH]c4cc(C#N)ccc43)CC2)C(=O)O1 (stereo partly drawn) [Example 92, 1-((1R,4r)-4-((R+S)-5-methyl-2-oxo-5-phenyloxazolidin-3-yl)cyclohexyl)-2-oxo-2,3-dihydro-1H-benzo[d]imidazole-5-carbonitrile] | 4.9 | 177 | 183 | – | – | – | –
17 | Cc1ccccc1[C@@H]1N(c2ccc(C(=O)Nc3cccc4cccnc34)cc2)C(=O)OC1(C)C [Example 41, (S)-4-(5,5-dimethyl-2-oxo-4-(o-tolyl)oxazolidin-3-yl)-N-(quinolin-8-yl)benzamide] | 116 | 1980 | 4370 | – | – | – | –
18 | CC1(C)OC(=O)N([C@H]2CC[C@H](c3cc(-c4ncccn4)c[nH]c3=O)CC2)C1c1ccccc1 (mixture of isomers) [Example 7, (+/−)-3-(trans-4-((4S/R)-5,5-Dimethyl-2-oxo-4-phenyl-1,3-oxazolidin-3-yl)cyclohexyl)-5-(2-pyrimidinyl)-2(1H)-pyridinone] | – | – | – | – | 695 | 1460 | 31.8
19 | O=C(Nc1cccc2cccnc12)c1ccc(N2C(=O)OC3(CCCC3)C2c2ccccc2)cc1 (stereo not drawn) [Example 45, (R+S) 4-(2-oxo-4-phenyl-1-oxa-3-azaspiro[4.4]nonan-3-yl)-N-(quinolin-8-yl)benzamide] | 1250 | – | – | – | > 10000 | > 25000 | –
20 | CC1(C)OC(=O)N([C@H]2CC[C@H](c3c[nH]c(=O)c(-c4ncccn4)c3)CC2)[C@H]1c1ccccc1 [Example 97, (S)-5,5-Dimethyl-3-((1r,4S)-4-(6-oxo-5-(pyrimidin-2-yl)-1,6-dihydropyridin-3-yl)cyclohexyl)-4-phenyloxazolidin-2-one] | 267 | 4430 | > 25000 | – | – | – | –
21 | CC1(C)OC(=O)N(c2ccc(C(=O)Nc3cccc4cccnc34)cc2)C1c1ccccc1F (stereo not drawn) [Example 42, (R+S) 4-(4-(2-fluorophenyl)-5,5-dimethyl-2-oxooxazolidin-3-yl)-N-(quinolin-8-yl)benzamide] | 263 | 4870 | 9400 | – | – | – | –
22 | C[C@]1(c2ccccc2)CN([C@H]2CC[C@H](n3c(=O)[nH]c4cnccc43)CC2)C(=O)O1 (single isomer, unassigned) [Example 91] | 9.01 | 3610 | 4430 | – | – | – | –
